According to patent publication US20080070954A1, “Acylurea Connected And Sulfonylurea Connected Hydroxamates” (S*BIO PTE LTD., priority 2003, published 2008):
Blank lines part the entries; values can stand above or below the compound they belong to.

What was measured:
[1] = target: T1, HDAC1 enzyme (recombinant GST-HDAC1) (Homo sapiens, UniProt Q13547); assay: In vitro HDAC assay for determination of IC50 values (BIOMOL fluorescent-based), HDAC1; format: biochemical; settings: 600 nM HDAC1 enzyme, 500 μM Flur de lys generic substrate, 2 h room temperature
T1 construct: Amplification of human HDAC1 and HDAC8 coding region from this cDNA library; made in house; host or cells: SF9 insect cells (baculovirus, pDEST20 vector)
Procedure: (§1) Human cDNA library was prepared using cultured SW620 cells. Amplification of human HDAC1 and HDAC8 coding region from this cDNA library was cloned separately into the baculovirus expression pDEST20 vector and pFASTBAC vector respectively (GATEWAY Cloning Technology, Invitrogen Pte Ltd). The pDEST20-HDAC1 and pFASTBAC-HTGST-HDAC8 constructs were confirmed by DNA sequencing. Recombinant baculovirus was prepared using the Bac-To-Bac method following the manufacturer's instruction (Invitrogen Pte Ltd). Baculovirus titer was determined by plaque assay to be about 10^8 PFU/ml.
(§2) Expression of GST-HDAC1 or HTGST-HDAC8 was done by infecting SF9 cells (Invitrogen Pte Ltd) with pDEST20-HDAC1 or pFASTBAC-GST-HDAC8 baculovirus at MOI=1 for 48 h. Soluble cell lysate was incubated with pre-equilibrated Glutathione Sepharose 4B beads (Amersham) at 4° C. for 2 h. The beads were washed with PBS buffer for 3 times. The GST-HDAC1 protein or GST-HDAC8 protein was eluted by elution buffer containing 50 mM Tris, pH8.0, 150 mM NaCl, 1% Triton X-100 and 10 mM or 20 mM reduced Glutathione. The purified GST-HDAC1 protein or purified GST-HDAC8 protein was dialyzed with HDAC storage buffer containing 10 mM Tris, pH7.5, 100 mM NaCl and 3 mM MgCl2. 20% Glycerol was added to purified GST-HDAC1 protein or purified GST-HDAC8 before storage at −80° C.
The assay has been carried out in 96 well format and the BIOMOL fluorescent-based HDAC activity assay has been applied. The reaction composed of assay buffer, containing 25 mM Tris pH 7.5, 137 mM NaCl, 2.7 mM KCl, 1 mM MgCl2, 1 mg/ml BSA, tested compounds, 500 nM HDAC8 enzyme or 600 nM HDAC1 enzyme, 200 μM Flur de lys p53 peptide substrate for HDAC8 enzyme or 500 μM Flur de lys generic substrate for HDAC1 enzyme and subsequently was incubated at room temperature for 2 h. Flur de lys Developer was added and the reaction was incubated for 10 min. Briefly, deacetylation of the substrate sensitizes it to the developer, which then generates a fluorophore. The fluorophore is excited with 360 nm light and the emitted light (460 nm) is detected on a fluorometric plate reader (Tecan Ultra Microplate detection system, Tecan Group Ltd.).
(§3) The analytical software, Prism 3.0® (GraphPad Software Inc) has been used to generate IC50 from a series of data.

[2] = target: T2, HDAC8 enzyme (recombinant GST-HDAC8) (Homo sapiens, UniProt Q9BY41); assay: In vitro HDAC assay for determination of IC50 values (BIOMOL fluorescent-based), HDAC8; format: biochemical; settings: 500 nM HDAC8 enzyme, 200 μM Flur de lys p53 peptide substrate, 2 h room temperature
T2 construct: Amplification of human HDAC1 and HDAC8 coding region from this cDNA library; made in house; host or cells: SF9 insect cells (baculovirus, pFASTBAC vector)
T2 sequence (Q9BY41 1-377): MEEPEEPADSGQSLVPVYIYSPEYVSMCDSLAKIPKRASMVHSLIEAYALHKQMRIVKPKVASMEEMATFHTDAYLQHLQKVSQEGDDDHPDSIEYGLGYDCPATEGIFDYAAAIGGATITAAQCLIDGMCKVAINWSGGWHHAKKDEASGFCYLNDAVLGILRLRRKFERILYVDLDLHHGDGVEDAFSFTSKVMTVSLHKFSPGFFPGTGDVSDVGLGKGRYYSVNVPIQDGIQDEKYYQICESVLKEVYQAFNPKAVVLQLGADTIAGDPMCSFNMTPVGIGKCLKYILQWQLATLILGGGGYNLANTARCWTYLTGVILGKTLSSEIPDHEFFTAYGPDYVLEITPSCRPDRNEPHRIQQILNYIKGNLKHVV
Procedure: as §1, with “The pDEST20-HDAC1 and pFASTBAC-HTGST-HDAC8 constructs were confirmed by DNA sequencing.” left out, “Ltd).” for “Ltd). Baculovirus titer was determined by plaque assay to be about 10^8 PFU/ml.”
as §2
The assay has been carried out in 96 well format and the BIOMOL fluorescent-based HDAC activity assay has been applied. […] Flur de lys Developer was added and the reaction was incubated for 10 min. Briefly, deacetylation of the substrate sensitizes it to the developer, which then generates a fluorophore. The fluorophore is excited with 360 nm light and the emitted light (460 nm) is detected on a fluorometric plate reader (Tecan Ultra Microplate detection system, Tecan Group Ltd.).
as §3

[3] = tested on: Colo205 human colon cancer cell line; assay: Cell-based proliferation assay for determination of GI50 values, Colo205; settings: COLO 205, Colo205 cells, 96 h treatment, cyquant assay, read-out: Colo 205 Gl50
Procedure: (§4) Human colon cancer cell lines (Colo205) and human breast cancer cell lines (MDA-MB435 and MDA-MB231) were obtained from ATCC. Colo205 cells were cultivated in RPMI 1640 containing 2 mM L-Glutamine, 5% FBS, 1.0 mM Na Pyruvate. MDA-MB231 cells were cultivated in RPMI 1640 containing 2 mM L-glutamine, 5% FBS. MDA-MB435 cells were cultivated in DMEM containing 2 mM L-Glutamine, 5% FBS. Colo205 cells were seeded in 96-wells plate at 5000 cells per well respectively. MDA-MB435 and MDA-MB231 cells were seeded in 96-wells plate at 6000 cells per well. The plates were incubated at 37° C., 5% CO2, for 24 h. Cells were treated with compounds at various concentrations for 96 h. Cell growth was then monitored using cyquant cell proliferation assay (Invitrogen Pte Ltd). Dose response curves were plotted to determine GI50 values for the compounds using XL-fit (ID Business Solution, Emeryville, Calif.).

[4] = tested on: MDA-MB231 human breast cancer cell line; assay: Cell-based proliferation assay for determination of GI50 values, MDA-MB231; settings: MDA-MB231 cells, 96 h treatment, cyquant assay
Procedure: as §4

[5] = tested on: MDA-MB435 human breast cancer cell line; assay: Cell-based proliferation assay for determination of GI50 values, MDA-MB435; settings: MDA-MB435 cells, 96 h treatment, cyquant assay
Procedure: as §4

[6] = tested on: acetylated histone H3 in Colo205 cells; assay: Histone acetylation assay (western blot), histone H3; format: cell-based, human; set-up: key: “Active” means accumulation of acetylated histone was observed when compared with control (without compound); settings: Colo205 cells, 0.1, 1, 5 and 10 μM, 24 h
Procedure: (§5) A hallmark of histone deacetylase (HDAC) inhibition is the increase in the acetylation level of histones. Histone acetylation, including H3, H4, H2A and H2B can be detected by immuno-blotting (western-blot). Colo205 cells, approximately 1.5×10^6 cells/10 cm dish, were seeded in the previously described medium, cultivated for 24 h and subsequently treated with HDAC inhibitory agents at 0.1, 1, 5 and 10 μM final concentration. After 24 h, cells were harvested and lysed according to the instruction from Sigma Mammalian Cell Lysis Kit. The protein concentration was quantified using BCA method (Sigma Pte Ltd). The protein lysate was separated using 4-12% bis-tris SDS-PAGE gel (Invitrogen Pte Ltd) and was transferred onto PVDF membrane (BioRad Pte Ltd). The membrane was probed separately using primary antibody specific for acetylated H3, acetylated H4 or acetylated H2A (Upstate Pte Ltd). The detection antibody, goat anti rabbit antibody conjugated with Horse radish peroxidase (HRP) was used according to the manufacturer instruction (Pierce Pte Ltd). After removing the detection antibody from the membrane, an enhanced chemiluminescent substrate for detection of HRP (Pierce Pte Ltd) was added onto the membrane. After removing the substrate, the membrane was exposed to an X-ray film (Kodak) for 1 sec-20 mins. The X-ray film was developed using the X-ray film processor. The density of each band observed on the developed film could be analysed using UVP Bioimaging software (UVP, Inc, Upland, Calif.). The values were then normalized against the density of actin in the corresponding samples to obtain the expression of the protein.

[7] = tested on: acetylated histone H4 in Colo205 cells; assay: Histone acetylation assay (western blot), histone H4; format: cell-based, human; set-up: key: “Active” means accumulation of acetylated histone was observed when compared with control (without compound); settings: Colo205 cells, 0.1, 1, 5 and 10 μM, 24 h
Procedure: as §5

[8] = tested on: acetylated histone H2A in Colo205 cells; assay: Histone acetylation assay (western blot), histone H2A; format: cell-based, human; set-up: key: “Active” means accumulation of acetylated histone was observed when compared with control (without compound); settings: Colo205 cells, 0.1, 1, 5 and 10 μM, 24 h
Procedure: as §5, with “After removing the substrate, the membrane was exposed to an X-ray film (Kodak) for 1 sec-20 mins. The X-ray film was developed using the X-ray film processor.” left out, “The values were then normalized against the density of actin in the corresponding samples to obtain the expression of the protein.” left out

[9] = tested on: acetylated histone H2B in Colo205 cells; assay: Histone acetylation assay (western blot), histone H2B; format: cell-based, human; set-up: key: “Active” means accumulation of acetylated histone was observed when compared with control (without compound); settings: Colo205 cells, 0.1, 1, 5 and 10 μM, 24 h
Procedure: as §5, with “After removing the substrate, the membrane was exposed to an X-ray film (Kodak) for 1 sec-20 mins. The X-ray film was developed using the X-ray film processor.” left out, “The values were then normalized against the density of actin in the corresponding samples to obtain the expression of the protein.” left out

T1 sequence (Q13547 whole entry): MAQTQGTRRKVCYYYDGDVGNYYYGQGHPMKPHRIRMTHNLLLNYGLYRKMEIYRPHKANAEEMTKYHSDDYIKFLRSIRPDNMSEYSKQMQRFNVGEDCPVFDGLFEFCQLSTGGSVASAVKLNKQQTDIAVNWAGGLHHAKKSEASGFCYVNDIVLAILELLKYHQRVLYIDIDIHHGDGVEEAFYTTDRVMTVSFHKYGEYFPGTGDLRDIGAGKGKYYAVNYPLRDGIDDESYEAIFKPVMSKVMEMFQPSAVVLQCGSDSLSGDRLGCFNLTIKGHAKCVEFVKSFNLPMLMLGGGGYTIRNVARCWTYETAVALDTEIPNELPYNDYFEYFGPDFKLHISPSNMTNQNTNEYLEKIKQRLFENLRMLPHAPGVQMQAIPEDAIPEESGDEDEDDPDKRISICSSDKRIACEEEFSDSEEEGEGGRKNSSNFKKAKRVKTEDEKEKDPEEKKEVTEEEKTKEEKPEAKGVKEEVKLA

SMILES: O=C(NCc1ccc(C(=O)NO)cc1)NC(=O)c1ccccc1 [Example 6, 4-(3-Benzoyl-ureidomethyl)-N-hydroxy-benzamide]
IC50 [1]: 0.13 µM
IC50 [2]: 0.041 µM
GI50 [3]: 1.91 µM
MDA-MB231 Gl50 [4]: 1.92 µM
MDA-MB435 Gl50 [5]: 1.24 µM
Histone 3 acetylation [6]: Active
Histone 4 acetylation [7]: Active

SMILES: O=C(Cc1cccc(NC(=O)NC(=O)c2ccccc2)c1)NO [Example 7, 2-[3-(3-Benzoyl-ureido)-phenyl]-N-hydroxy-acetamide]
IC50 [1]: > 100 µM
IC50 [2]: 0.15 µM

SMILES: O=C(/C=C/c1ccc(CN(CCN2CCCCC2)C(=O)NC(=O)c2ccccc2)cc1)NO [Example 46, 3-{4-[3-Benzoyl-1-(2-piperidin-1-yl-ethyl)-ureidomethyl]-phenyl}-N-hydroxy-acrylamide]
IC50 [1]: 0.048 µM
IC50 [2]: 0.23 µM
GI50 [3]: 0.63 µM
Histone 3 acetylation [6]: Active

SMILES: O=C(NO)c1ccc(CN2CCN(C(=O)NC(=O)c3ccccc3)CC2)cc1 [Example 30, 4-(4-Benzoylaminocarbonyl-piperazin-1-ylmethyl)-N-hydroxy-benzamide]
IC50 [1]: 2.87 µM
IC50 [2]: 0.46 µM

SMILES: O=C(/C=C/c1ccc(CN(CCc2ccc(Br)cc2)C(=O)NC(=O)c2ccccc2)cc1)NO [Example 25, 3-(4-{3-Benzoyl-1-[2-(4-bromo-phenyl)-ethyl]-ureidomethyl}-phenyl)-N-hydroxy-acrylamide]
GI50 [3]: 0.16 µM

SMILES: O=C(CCCCCCCNC(=O)NC(=O)c1ccccc1)NO [Example 12, 8-(3-Benzoyl-ureido)-octanoic acid hydroxyamide]
IC50 [1]: 0.098 µM
IC50 [2]: 0.4 µM
GI50 [3]: 8.03 µM

SMILES: O=C(/C=C/c1ccc(CN(CCc2ccccc2)C(=O)NC(=O)c2ccccc2)cc1)NO [Example 23, 3-[4-(3-Benzoyl-1-phenethyl-ureidomethyl)-phenyl]-N-hydroxy-acrylamide]
IC50 [1]: 0.012 µM
IC50 [2]: 0.2 µM
GI50 [3]: 0.15 µM
MDA-MB231 Gl50 [4]: 0.26 µM
Histone 3 acetylation [6]: Active

SMILES: O=C(/C=C/c1ccc(CN(CCN2CCCC2)C(=O)NC(=O)c2ccccc2)cc1)NO [Example 47, 3-{4-[3-Benzoyl-1-(2-pyrrolidin-1-yl-ethyl)-ureidomethyl]-phenyl}-N-hydroxy-acrylamide]
IC50 [1]: 0.024 µM
IC50 [2]: 0.25 µM

More lines, main results first:

IC50 [1]: 0.15 µM
IC50 [2]: 0.27 µM
GI50 [3]: 2.68 µM
SMILES: O=C(CCCCCCNC(=O)NC(=O)c1ccccc1)NO [Example 13, 7-(3-Benzoyl-ureido)-heptanoic acid hydroxyamide]
Histone 3 acetylation [6]: Active

IC50 [1]: 0.056 µM
IC50 [2]: 1.07 µM
GI50 [3]: 1.89 µM
SMILES: O=C(CCCCCNC(=O)NC(=O)c1ccccc1)NO [Example 10, 6-(3-Benzoyl-ureido)-hexanoic acid hydroxyamide]
MDA-MB231 Gl50 [4]: 1.03 µM
MDA-MB435 Gl50 [5]: 1.79 µM
Histone 3 acetylation [6]: Active
Histone 4 acetylation [7]: Active
Hisotne 2A acetylation [8]: Active
Histone 2B acetylation [9]: Active

IC50 [1]: > 100 µM
IC50 [2]: 0.79 µM
SMILES: Cc1ccc(S(=O)(=O)NC(=O)NCCCCCC(=O)NO)cc1 [Example 1, 6-[3-(toluene-4-sulfonyl)ureido]-hexanoic acid hydroxyamide]

IC50 [1]: > 100 µM
IC50 [2]: 0.072 µM
SMILES: O=C(Cc1ccc(NC(=O)NC(=O)c2ccccc2)cc1)NO [Example 8, 2-[4-(3-Benzoyl-ureido)-phenyl]-N-hydroxy-acetamide]

IC50 [1]: 1.13 µM
IC50 [2]: 0.051 µM
SMILES: Cc1ccc(S(=O)(=O)NC(=O)NCCCCCCCC(=O)NO)cc1 [Example 14]

IC50 [1]: 2.92 µM
IC50 [2]: 0.049 µM
SMILES: Cc1ccc(S(=O)(=O)NC(=O)NCc2ccc(C(=O)NO)cc2)cc1 [Example 4]

IC50 [1]: > 100 µM
IC50 [2]: 0.14 µM
SMILES: Cc1ccc(S(=O)(=O)NC(=O)Nc2ccc(CC(=O)NO)cc2)cc1 [Example 5, N-Hydroxy-2-{4-[3-(toluene-4-sulfonyl)ureido]-phenyl}acetamide]

IC50 [1]: 0.027 µM
IC50 [2]: 0.52 µM
GI50 [3]: 2.67 µM
SMILES: O=C(CCCCCNC(=S)NC(=O)c1ccccc1)NO [Example 18, 6-(3-Benzoyl-thioureido)-hexanoic acid hydroxyamide]
Histone 3 acetylation [6]: Active

IC50 [1]: 2.61 µM
IC50 [2]: 0.04 µM
SMILES: Cc1ccc(S(=O)(=O)NC(=O)Nc2ccc(/C=C/C(=O)NO)cc2)cc1 [Example 2]
